# Values quoted from earlier work in patent EP4817601A1, “NANOPARTICLES COMPRISING SIROLIMUS AND ALBUMIN, PHARMACEUTICAL COMPOSITION FOR SUBCUTANEOUS ADMINISTRATION, COMPRISING SAME, AND PREPARATION METHOD THEREFOR” (SNBioscience Inc., priority 2023, dated 2025).
# Conditions: poorly soluble drug; background statement
compound,measurement,value
CO[C@H]1C[C@@H]2CC[C@@H](C)[C@@](O)(O2)C(=O)C(=O)N2CCCC[C@H]2C(=O)O[C@H]([C@H](C)C[C@@H]2CC[C@@H](O)[C@H](OC)C2)CC(=O)[C@H](C)/C=C(\C)[C@@H](O)[C@@H](OC)C(=O)[C@H](C)C[C@H](C)/C=C/C=C/C=C/1C [Sirolimus],bioavailability (BA),14%
